Test results published in patent publication US20250145665A1, “MACROCYCLIC PEPTIDES USEFUL AS MODULATORS OF TNF ALPHA” (Bristol-Myers Squibb Company, priority 2023, published 2025).
Starred links: 1 amine or outer side, 2 acyl side, 3 side chain; linkers in the order of their positions; H or OH if unused. Positions of bridges follow the written chain, without caps; N, C: chain ends. Non-standard residues stand in square brackets, D forms with d. Residues, ends and D or L forms follow the SMILES beside them. *: point of attachment. Bip(4'-NH) = O=C([C@H](Cc1ccc(-c2ccc(N[*:3])cc2)cc1)N[*:1])[*:2]; dArg(ω-(3-HO-benzyl)) = N=C(NCCC[C@@H](N)C(=O)O)NCc1cccc(O)c1; Bip(4'-CONHMe) = CNC(=O)c1ccc(-c2ccc(C[C@H](N)C(=O)O)cc2)cc1; dArg(ω-Bn(3-CH2OH)) = N=C(NCCC[C@@H](N)C(=O)O)NCc1cccc(CO)c1; Indazole3carbonyl(1-CH2COOH) = O=C(O)Cn1nc(C(=O)*)c2ccccc21; Bip(4'-COOH) = N[C@@H](Cc1ccc(-c2ccc(C(=O)O)cc2)cc1)C(=O)O; Bip(4'-NHAc) = CC(=O)Nc1ccc(-c2ccc(C[C@H](N)C(=O)O)cc2)cc1; Indole3carbonyl(1-CH2COOH) = O=C(O)Cn1cc(C(=O)*)c2ccccc21; X51 = N=C(NCCC[C@@H](N[*:1])C(=O)[*:2])NCCc1ccccc1; dArg(ω-Bn) = N=C(NCCC[C@@H](N)C(=O)O)NCc1ccccc1; Ala(morpholin-4-yl) = N[C@@H](CN1CCOCC1)C(=O)O; Benzoyl(3-OCH2COOH) = O=C(O)COc1cccc(C(=O)*)c1; Phe(3-CONH2) = NC(=O)c1cccc(C[C@H](N)C(=O)O)c1; Bip = N[C@@H](Cc1ccc(-c2ccccc2)cc1)C(=O)O; Morpholine(3S-CO) = O=C(O)[C@@H]1COCCN1; X82 = C[C@@]1(C(=O)[*:2])CCN1[*:1]; 2Pal = N[C@@H](Cc1ccccn1)C(=O)O; 2Thi = N[C@@H](Cc1cccs1)C(=O)O; Cha = N[C@@H](CC1CCCCC1)C(=O)O; Chg = N[C@H](C(=O)O)C1CCCCC1; Tle = CC(C)(C)[C@H](N)C(=O)O; Aze = O=C(O)[C@@H]1CCN1; Sar = CNCC(=O)O

molecular target: TNFα (Homo sapiens, UniProt P01375); test: TNF-Induced HEK-Blue Assay; type: cell-based; details: not given
Sequence (P01375 77-233 limits assumed): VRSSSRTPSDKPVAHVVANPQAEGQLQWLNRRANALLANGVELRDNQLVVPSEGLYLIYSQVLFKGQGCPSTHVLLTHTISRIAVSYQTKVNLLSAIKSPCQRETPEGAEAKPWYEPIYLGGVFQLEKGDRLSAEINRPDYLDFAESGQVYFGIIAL

Row | SMILES | IC50
1 | CC(C)C[C@@H]1NC(=O)[C@H](Cc2cccc(C(N)=O)c2)NC(=O)[C@H](C(C)C)NC(=O)[C@@H]2CCCN2C(=O)[C@H](C(C)C)NC(=O)[C@@H](CCCNC(=N)NCc2ccccc2)NC(=O)[C@H](CC(=O)O)NC(=O)[C@H](Cc2ccc(O)cc2)NC(=O)CN(C)C(=O)[C@H](Cc2ccc(-c3ccc(NC(=O)c4cn(CC(=O)O)c5ccccc45)cc3)cc2)NC(=O)[C@H](Cc2ccc(-c3ccccc3)cc2)NC(=O)[C@H](CN2CCOCC2)NC(=O)CSC[C@@H](C(=O)NCC(N)=O)NC1=O [Example 601] ({CH2CO}-[Ala(morpholin-4-yl)][Bip][Bip(4'-NH)](Indole3carbonyl(1-CH2COOH))[Sar]YD[dArg(ω-Bn)]VPV[Phe(3-CONH2)]LCG-NH2; thioether N-13) | < 0.05 µM
2 | CC(C)C[C@@H]1NC(=O)[C@H](Cc2cccs2)NC(=O)[C@H](C(C)C)NC(=O)[C@@H]2CCCN2C(=O)[C@H](C(C)C)NC(=O)[C@@H](CCCNC(=N)NCc2cccc(O)c2)NC(=O)[C@H](CC(=O)O)NC(=O)[C@H](Cc2ccccn2)NC(=O)CN(C)C(=O)[C@H](Cc2ccc(-c3ccc(NC(=O)c4nn(CC(=O)O)c5ccccc45)cc3)cc2)NC(=O)[C@H](Cc2ccc(-c3ccccc3)cc2)NC(=O)[C@H](CN2CCOCC2)NC(=O)CSC[C@@H](C(=O)NCC(N)=O)NC1=O [Example 626] ({CH2CO}-[Ala(morpholin-4-yl)][Bip][Bip(4'-NH)](Indazole3carbonyl(1-CH2COOH))[Sar][2Pal]D[dArg(ω-(3-HO-benzyl))]VPV[2Thi]LCG-NH2; thioether N-13) | 0.05 to 0.2 µM
3 | CNC(=O)c1ccc(-c2ccc(C[C@@H]3NC(=O)[C@H](CN4CCOCC4)NC(=O)CSC[C@@H](C(=O)NCC(N)=O)NC(=O)[C@H](CC(C)C)NC(=O)[C@H](CCCNC(=N)N)NC(=O)[C@H](C(C)C)NC(=O)[C@@H]4CCCN4C(=O)[C@H](C(C)C)NC(=O)[C@@H](CCCNC(=N)NCc4cccc(CO)c4)NC(=O)[C@H](CC(=O)O)NC(=O)[C@@H]4CCCN4C(=O)CN(C)C(=O)[C@H](Cc4ccc(-c5ccc(NC(=O)c6nn(CC(=O)O)c7ccccc67)cc5)cc4)NC3=O)cc2)cc1 [Example 426] ({CH2CO}-[Ala(morpholin-4-yl)][Bip(4'-CONHMe)][Bip(4'-NH)](Indazole3carbonyl(1-CH2COOH))[Sar]PD[dArg(ω-Bn(3-CH2OH))]VPVRLCG-NH2; thioether N-13) | < 0.05 µM
4 | CC[C@H](C)[C@@H]1NC(=O)[C@@H](CCCNC(=N)NCc2cccc(CO)c2)NC(=O)[C@H](CC(=O)O)NC(=O)[C@H](Cc2cnc[nH]2)NC(=O)CN(C)C(=O)[C@H](Cc2ccc(-c3ccc(NC(=O)c4nn(CC(=O)O)c5ccccc45)cc3)cc2)NC(=O)[C@H](Cc2ccc(-c3ccccc3)cc2)NC(=O)[C@H](CC2CCCCC2)NC(=O)CSC[C@@H](C(=O)NCC(N)=O)NC(=O)[C@H](CC(C)C)NC(=O)[C@H](Cc2cnc[nH]2)NC(=O)[C@H](C(C)C)NC(=O)[C@@H]2CCCN2C1=O [Example 477] ({CH2CO}-[Cha][Bip][Bip(4'-NH)](Indazole3carbonyl(1-CH2COOH))[Sar]HD[dArg(ω-Bn(3-CH2OH))]IPVHLCG-NH2; thioether N-13) | < 0.05 µM
5 | CC(C)C[C@@H]1NC(=O)[C@H](CCCNC(=N)N)NC(=O)[C@H](C(C)C)NC(=O)[C@@H]2CCCN2C(=O)[C@H](C(C)C)NC(=O)[C@@H](CCCNC(=N)NCCc2ccccc2)NC(=O)[C@H](CC(=O)O)NC(=O)[C@@H]2CCCN2C(=O)CN(C)C(=O)[C@H](Cc2ccc(-c3ccc(NC(=O)c4nn(CC(=O)O)c5ccccc45)cc3)cc2)NC(=O)[C@H](Cc2ccc(-c3ccccc3)cc2)NC(=O)[C@H](CN2CCOCC2)NC(=O)CSC[C@@H](C(=O)NCC(N)=O)NC1=O [Example 365] ({CH2CO}-[Ala(morpholin-4-yl)][Bip][Bip(4'-NH)](Indazole3carbonyl(1-CH2COOH))[Sar]PD[X51]VPVRLCG-NH2; thioether N-13) | < 0.05 µM

same assay, conditions: HEK-Blue-CD40L cells, NF-kB-driven secreted alkaline phosphatase reporter; TNFα 0.5 ng/ml; 18 h; read-out: TNF induced HEK-Blue assay IC50 value

Row | IC50 | SMILES
6 | < 0.05 µM | CC(=O)Nc1ccc(-c2ccc(C[C@@H]3NC(=O)[C@H](Cc4ccc(-c5ccccc5)cc4)NC(=O)[C@H](CN4CCOCC4)NC(=O)CSC[C@@H](C(=O)NCC(N)=O)NC(=O)[C@H](CC(C)C)NC(=O)[C@H](CCCNC(=N)N)NC(=O)[C@H](C(C)C)NC(=O)[C@@H]4CCCN4C(=O)[C@H](C(C)C)NC(=O)[C@@H](CCCNC(=N)N)NC(=O)[C@H](CC(=O)O)NC(=O)[C@H](Cc4ccccn4)NC(=O)CN(C)C3=O)cc2)cc1 [Example 203] ({CH2CO}-[Ala(morpholin-4-yl)][Bip][Bip(4'-NHAc)][Sar][2Pal]D[dR]VPVRLCG-NH2; thioether N-13)
7 | < 0.05 µM | CC(=O)Nc1ccc(-c2ccc(C[C@@H]3NC(=O)[C@H](Cc4ccc(-c5ccc(C(=O)O)cc5)cc4)NC(=O)[C@H](CN4CCOCC4)NC(=O)CSC[C@@H](C(=O)NCC(N)=O)NC(=O)[C@H](CC(C)C)NC(=O)[C@H](CCCNC(=N)N)NC(=O)[C@H](C(C)C)NC(=O)[C@@H]4CCN4C(=O)[C@H](C(C)C)NC(=O)[C@@H](CCCNC(=N)N)NC(=O)[C@H](CC(=O)O)NC(=O)[C@H](Cc4ccccn4)NC(=O)CN(C)C3=O)cc2)cc1 [Example 185] ({CH2CO}-[Ala(morpholin-4-yl)][Bip(4'-COOH)][Bip(4'-NHAc)][Sar][2Pal]D[dR]V[Aze]VRLCG-NH2; thioether N-13)
8 | 0.05 to 0.2 µM | CC(=O)Nc1ccc(-c2ccc(C[C@@H]3NC(=O)[C@H](Cc4ccc(-c5ccc(C(=O)O)cc5)cc4)NC(=O)[C@H](CN4CCOCC4)NC(=O)CSC[C@@H](C(=O)NCC(N)=O)NC(=O)[C@H](CC(C)C)NC(=O)[C@H](Cc4ccc(O)cc4)NC(=O)[C@H](C4CCCCC4)NC(=O)[C@@H]4CCCN4C(=O)[C@H](C(C)C)NC(=O)[C@@H](CCCNC(=N)N)NC(=O)[C@H](CC(=O)O)NC(=O)[C@@H]4CCCN4C(=O)CN(C)C3=O)cc2)cc1 [Example 237] ({CH2CO}-[Ala(morpholin-4-yl)][Bip(4'-COOH)][Bip(4'-NHAc)][Sar]PD[dR]VP[Chg]YLCG-NH2; thioether N-13)
9 | 0.05 to 0.2 µM | CC(C)C[C@@H]1NC(=O)[C@H](Cc2ccc(O)cc2)NC(=O)[C@H](C(C)C)NC(=O)[C@]2(C)CCN2C(=O)[C@H](C(C)C)NC(=O)[C@H](CCCNC(=N)N)NC(=O)[C@H](CC(=O)O)NC(=O)[C@H](Cc2ccc(O)cc2)NC(=O)CN(C)C(=O)[C@H](Cc2ccc(-c3ccccc3)cc2)NC(=O)[C@H](Cc2ccc(-c3ccccc3)cc2)NC(=O)[C@H](CN2CCOCC2)NC(=O)CSC[C@@H](C(=O)NCC(N)=O)NC1=O [Example 93] ({CH2CO}-[Ala(morpholin-4-yl)][Bip][Bip][Sar]YDRV[X82]VYLCG-NH2; thioether N-13)
10 | < 0.05 µM | CC[C@H](C)[C@@H]1NC(=O)[C@@H](CCCNC(=N)N)NC(=O)[C@H](CC(=O)O)NC(=O)[C@H](Cc2cnc[nH]2)NC(=O)CN(C)C(=O)[C@H](Cc2ccc(-c3ccc(NC(=O)c4cccc(OCC(=O)O)c4)cc3)cc2)NC(=O)[C@H](Cc2ccc(-c3ccccc3)cc2)NC(=O)[C@H](CC2CCCCC2)NC(=O)CSC[C@@H](C(=O)NCC(N)=O)NC(=O)[C@H](CC(C)C)NC(=O)[C@H](Cc2cnc[nH]2)NC(=O)[C@H](C(C)C)NC(=O)[C@@H]2CCCN2C1=O [Example 308] ({CH2CO}-[Cha][Bip][Bip(4'-NH)](Benzoyl(3-OCH2COOH))[Sar]HD[dR]IPVHLCG-NH2; thioether N-13)
11 | 0.2 to 2 µM | CC(=O)Nc1ccc(-c2ccc(C[C@@H]3NC(=O)[C@H](Cc4ccc(-c5ccc(C(=O)O)cc5)cc4)NC(=O)[C@H](CN4CCOCC4)NC(=O)CSC[C@@H](C(=O)NCC(N)=O)NC(=O)[C@H](CC(C)C)NC(=O)[C@H](Cc4cccs4)NC(=O)[C@H](C4CCCCC4)NC(=O)[C@@H]4CCCN4C(=O)[C@H](C(C)C)NC(=O)[C@@H](CCCNC(=N)N)NC(=O)[C@H](CC(=O)O)NC(=O)[C@@H]4CCCN4C(=O)CN(C)C3=O)cc2)cc1 [Example 314] ({CH2CO}-[Ala(morpholin-4-yl)][Bip(4'-COOH)][Bip(4'-NHAc)][Sar]PD[dR]VP[Chg][2Thi]LCG-NH2; thioether N-13)
12 | < 0.05 µM | CC(=O)Nc1ccc(-c2ccc(C[C@@H]3NC(=O)[C@H](Cc4ccc(-c5ccccc5)cc4)NC(=O)[C@H](CC4CCCCC4)NC(=O)CSC[C@@H](C(=O)NCC(N)=O)NC(=O)[C@H](CC(C)C)NC(=O)[C@H](Cc4cccc(C(N)=O)c4)NC(=O)[C@H](C(C)C)NC(=O)[C@@H]4CCCN4C(=O)[C@H](C(C)C)NC(=O)[C@@H](CCCNC(=N)N)NC(=O)[C@H](CC(=O)O)NC(=O)[C@H](Cc4ccccn4)NC(=O)CN(C)C3=O)cc2)cc1 [Example 233] ({CH2CO}-[Cha][Bip][Bip(4'-NHAc)][Sar][2Pal]D[dR]VPV[Phe(3-CONH2)]LCG-NH2; thioether N-13)
13 | 0.05 to 0.2 µM | CC(=O)Nc1ccc(-c2ccc(C[C@@H]3NC(=O)[C@H](Cc4ccc(-c5ccc(C(=O)O)cc5)cc4)NC(=O)[C@H](C(C)(C)C)NC(=O)CSC[C@@H](C(=O)NCC(N)=O)NC(=O)[C@H](CC(C)C)NC(=O)[C@H](Cc4ccc(O)cc4)NC(=O)[C@H](C(C)C)NC(=O)[C@@H]4CCN4C(=O)[C@H](C(C)C)NC(=O)[C@@H](CCCNC(=N)N)NC(=O)[C@H](CC(=O)O)NC(=O)[C@@H]4CCCN4C(=O)CN(C)C3=O)cc2)cc1 [Example 266] ({CH2CO}-[Tle][Bip(4'-COOH)][Bip(4'-NHAc)][Sar]PD[dR]V[Aze]VYLCG-NH2; thioether N-13)
14 | 0.05 to 0.2 µM | CC(=O)Nc1ccc(-c2ccc(C[C@@H]3NC(=O)[C@H](Cc4ccc(-c5ccccc5)cc4)NC(=O)[C@H](CN4CCOCC4)NC(=O)CSC[C@@H](C(=O)NCC(N)=O)NC(=O)[C@H](CC(C)C)NC(=O)[C@H](Cc4ccc(O)cc4)NC(=O)[C@H](C(C)C)NC(=O)[C@@H]4COCCN4C(=O)[C@H](C(C)C)NC(=O)[C@@H](CCCNC(=N)N)NC(=O)[C@H](CC(=O)O)NC(=O)[C@H](Cc4ccccn4)NC(=O)CN(C)C3=O)cc2)cc1 [Example 180] ({CH2CO}-[Ala(morpholin-4-yl)][Bip][Bip(4'-NHAc)][Sar][2Pal]D[dR]V[Morpholine(3S-CO)]VYLCG-NH2; thioether N-13)
